Counter-ions that a name gives are not always drawn.
Legend:
Assay type in all cases: cell-based
[1] = molecular target: T1, Iks potassium channel (KCNQ1/KCNE1) (Homo sapiens, UniProt P51787); experiment: Iks channel whole-cell patch clamp (Ion Channel Activity Measurement); details: human, CHO cells stably expressing Iks channel (KCNQ1 and KCNE1), room temperature; for inhibition at 5 min, 1 μM: pH 7.4, 1 μM test article; for inhibition at 5 min, 10 μM: pH 7.4, 10 μM test article
T1 construct: expressed in transfected cells; host or cells: CHO

[2] = molecular target: T2, CaV1.2 (L-type voltage-dependent calcium channel; CACNA1C, CACNB2, CACNA2D1) (Homo sapiens, UniProt Q13936); experiment: CaV1.2 channel whole-cell patch clamp (Ion Channel Activity Measurement); details: human, room temperature; for inhibition at 5 min, 1 μM: pH 7.4, 1 μM test article; for inhibition at 5 min, 10 μM: pH 7.4, 10 μM test article, read-out: CaV 1.2 10 μM (ion-channel inhibition)
T2 construct: expressed in transfected cells; host or cells: CHO
In short: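 Whole-cell patch clamp was run on CHO cells stably expressing CACNA1C/CACNB2/CACNA2D1 at 23–25 °C, with 10 mM CaCl2 TEA bath (pH 7.4) and CsCl pipette solution (pH 7.2). Currents were evoked from −80 mV to +10 mV for 0.3 s every 20 s without leak subtraction. Ascending concentrations were each applied for 5 min or until steady state.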

[3] = molecular target: T3, hERG (human ether-a-go-go related gene potassium channel, KCNH2) (Homo sapiens, UniProt Q12809); experiment: hERG channel whole-cell patch clamp (Ion Channel Activity Measurement); details: human, HEK293 cells expressing the human ERG potassium channel, room temperature; for inhibition at 1 μM: pH 7.4, 1 μM test article; for inhibition at 10 μM: pH 7.4, 10 μM test article
T3 construct: expressed in transfected cells; host or cells: HEK293
In short: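 HEK293 cells stably expressing hERG (NM_000238) were recorded by whole-cell patch clamp at 23-25° C. Holding potential −80 mV, step to 30 mV for 2.5 s, tail currents at −50 mV for 4 s, pulses every 10 s. Each concentration was perfused low to high for 5 min or to steady state, with each cell as its own control.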

T1 sequence (P51787 whole entry): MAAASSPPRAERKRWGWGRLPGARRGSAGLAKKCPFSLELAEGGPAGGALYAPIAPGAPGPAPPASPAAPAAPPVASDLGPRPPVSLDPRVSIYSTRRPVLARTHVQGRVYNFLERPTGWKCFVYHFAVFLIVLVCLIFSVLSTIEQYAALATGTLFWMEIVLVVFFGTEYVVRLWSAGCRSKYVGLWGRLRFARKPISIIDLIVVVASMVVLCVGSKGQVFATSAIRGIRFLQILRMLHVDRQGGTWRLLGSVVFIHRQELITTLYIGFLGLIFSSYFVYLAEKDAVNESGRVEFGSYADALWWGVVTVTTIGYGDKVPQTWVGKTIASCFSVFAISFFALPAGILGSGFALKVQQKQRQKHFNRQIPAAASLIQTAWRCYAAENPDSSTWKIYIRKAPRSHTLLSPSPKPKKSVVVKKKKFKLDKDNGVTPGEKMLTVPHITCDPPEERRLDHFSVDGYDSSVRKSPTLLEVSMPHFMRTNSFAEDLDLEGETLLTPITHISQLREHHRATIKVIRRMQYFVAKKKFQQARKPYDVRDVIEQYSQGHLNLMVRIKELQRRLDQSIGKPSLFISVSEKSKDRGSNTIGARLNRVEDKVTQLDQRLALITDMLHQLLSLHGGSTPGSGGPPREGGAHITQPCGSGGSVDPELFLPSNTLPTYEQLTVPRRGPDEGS
T3 sequence (Q12809 whole entry): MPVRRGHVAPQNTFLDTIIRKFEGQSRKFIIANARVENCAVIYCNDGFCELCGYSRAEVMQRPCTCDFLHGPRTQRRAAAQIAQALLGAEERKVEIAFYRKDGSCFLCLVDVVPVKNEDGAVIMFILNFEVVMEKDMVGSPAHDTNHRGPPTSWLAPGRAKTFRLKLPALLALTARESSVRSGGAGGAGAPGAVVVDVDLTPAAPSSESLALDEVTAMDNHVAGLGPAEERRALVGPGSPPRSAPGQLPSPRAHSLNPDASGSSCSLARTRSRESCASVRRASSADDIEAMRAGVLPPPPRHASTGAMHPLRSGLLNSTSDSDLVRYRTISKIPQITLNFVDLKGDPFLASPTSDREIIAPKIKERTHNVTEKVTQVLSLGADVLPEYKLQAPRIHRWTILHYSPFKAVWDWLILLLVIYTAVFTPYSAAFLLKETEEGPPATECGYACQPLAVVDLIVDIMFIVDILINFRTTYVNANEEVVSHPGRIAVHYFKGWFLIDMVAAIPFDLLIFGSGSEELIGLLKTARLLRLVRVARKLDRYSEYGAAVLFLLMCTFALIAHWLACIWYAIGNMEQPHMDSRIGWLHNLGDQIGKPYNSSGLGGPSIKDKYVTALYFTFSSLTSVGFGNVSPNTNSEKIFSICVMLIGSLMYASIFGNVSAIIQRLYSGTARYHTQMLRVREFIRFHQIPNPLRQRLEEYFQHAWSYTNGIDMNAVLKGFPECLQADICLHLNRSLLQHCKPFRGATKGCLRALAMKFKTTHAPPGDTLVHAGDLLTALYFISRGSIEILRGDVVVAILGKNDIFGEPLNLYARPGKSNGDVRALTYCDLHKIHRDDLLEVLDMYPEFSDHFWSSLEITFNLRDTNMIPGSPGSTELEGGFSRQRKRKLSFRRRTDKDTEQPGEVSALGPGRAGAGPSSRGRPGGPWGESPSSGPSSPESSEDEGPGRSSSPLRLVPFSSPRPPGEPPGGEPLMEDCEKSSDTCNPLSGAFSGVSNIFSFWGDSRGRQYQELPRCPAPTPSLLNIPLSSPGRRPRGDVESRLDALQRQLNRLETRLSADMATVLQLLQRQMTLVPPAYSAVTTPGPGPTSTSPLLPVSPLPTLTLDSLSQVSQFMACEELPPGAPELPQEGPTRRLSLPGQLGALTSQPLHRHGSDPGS

inhibition at 5 min, 1 μM [1] | inhibition at 5 min, 10 μM [1] | Structure (SMILES) | inhibition at 5 min, 1 μM [2] | inhibition at 5 min, 10 μM [2] | inhibition at 1 μM [3] | inhibition at 10 μM [3]
< 25% | – | CC[N+](C)(CC)CCOc1ccc2ccccc2c1Sc1c(OC)ccc2ccccc12 [Compound A191, diethyl(2-((1-((2-methoxynaphthalen-1-yl)thio)naphthalen-2-yl)oxy)ethyl)(methyl)-14-azane, iodide salt] | 25 to 50% | 75 to 100% | 75 to 100% | 75 to 100%
25 to 50% | 75 to 100% | CCN(CC)CCOc1ccc2ccccc2c1Sc1c(O)ccc2ccccc12 [Compound A151, 1-((2-(2-(diethylamino)ethoxy)naphthalen-1-yl)thio)naphthalen-2-ol] | < 25% | 75 to 100% | 75 to 100% | 75 to 100%
< 25% | < 25% | COc1ccc2ccccc2c1Cc1c(OC)ccc2ccccc12 [Compound A015, bis(2-methoxynaphthalen-1-yl)methane] | – | – | – | –
< 25% | 25 to 50% | [O-][S+](c1c(O)ccc2ccccc12)c1c(O)ccc2ccccc12 [Compound A006, 1,1′-sulfinylbis(naphthalen-2-ol)] | < 25% | < 25% | < 25% | < 25%
50 to 75% | 75 to 100% | Oc1ccc2ccccc2c1Cc1c(O)ccc2ccccc12 [Compound A001, 1,1′-methylenebis(naphthalen-2-ol)] | < 25% | 75 to 100% | < 25% | 75 to 100%
< 25% | 50 to 75% | Cc1cc2ccccc2c(Cc2c(O)ccc3ccccc23)c1O [Compound A031, 1-((2-hydroxynaphthalen-1-yl)methyl)-3-methylnaphthalen-2-ol] | < 25% | 25 to 50% | < 25% | 50 to 75%
< 25% | 25 to 50% | COc1ccc2ccccc2c1Cc1c(OCC[N+]2(C)CCOCC2)ccc2ccccc12 [Compound A130-2, 4-(2-((1-((2-methoxynaphthalen-1-yl)methyl)naphthalen-2-yl)oxy)ethyl)-4-methylmorpholin-4-ium formate] | 50 to 75% | 75 to 100% | 75 to 100% | –
25 to 50% | 75 to 100% | Oc1ccc2ccccc2c1Cc1c(OCCN2CCCC2)ccc2ccccc12 [Compound A129, 1-((2-(2-(pyrrolidin-1-yl)ethoxy)naphthalen-1-yl)methyl)naphthalen-2-ol] | 25 to 50% | 75 to 100% | 75 to 100% | –
< 25% | 50 to 75% | CCN(CC)CCOc1ccc2ccccc2c1Sc1c(OC)ccc2ccccc12 [Compound A152, N,N-diethyl-2-((1-((2-methoxynaphthalen-1-yl)thio)naphthalen-2-yl)oxy)ethan-1-amine] | < 25% | 75 to 100% | 75 to 100% | –
25 to 50% | – | Oc1ccc2ccccc2c1Cc1cccc2ccccc12 [Compound A052, 1-(naphthalen-1-ylmethyl)naphthalen-2-ol] | < 25% | 75 to 100% | < 25% | 75 to 100%
< 25% | 75 to 100% | CCN(CC)CCOc1ccc2ccccc2c1Nc1c(OC)ccc2ccccc12 [Compound A111-I-1, 2-(2-(diethylamino)ethoxy)-N-(2-methoxynaphthalen-1-yl)naphthalen-1-amine] | < 25% | – | 75 to 100% | 75 to 100%
< 25% | 25 to 50% | COc1ccc2ccccc2c1C(O)c1c(OC)ccc2ccccc12 [Compound A040, bis(2-methoxynaphthalen-1-yl)methanol] | – | – | – | –
< 25% | < 25% | COc1ccc2ccccc2c1Cc1c(O)ccc2ccccc12 [Compound A014, 1-((2-methoxynaphthalen-1-yl)methyl)naphthalen-2-ol] | < 25% | 50 to 75% | < 25% | 75 to 100%
25 to 50% | 50 to 75% | CN(c1c(O)ccc2ccccc12)c1c(O)ccc2ccccc12 [Compound A003, 1,1′-(methylazanediyl)bis(naphthalen-2-ol)] | < 25% | 25 to 50% | 25 to 50% | 75 to 100%
25 to 50% | 25 to 50% | O=S(=O)(c1c(O)ccc2ccccc12)c1c(O)ccc2ccccc12 [Compound A005, 1,1′-sulfonylbis(naphthalen-2-ol)] | – | – | – | –
< 25% | < 25% | Oc1ccccc1Cc1ccccc1O [Compound A016, 2,2′-methylenediphenol] | – | – | – | –
– | – | Oc1ccc2ccccc2c1Cc1c(OCCN2CCOCC2)ccc2ccccc12 [Compound A130, 1-((2-(2-morpholinoethoxy)naphthalen-1-yl)methyl)naphthalen-2-ol] | 25 to 50% | 75 to 100% | < 25% | 75 to 100%
– | – | Oc1ccc2c(c1Cc1c(O)ccc3ccccc13)CNCC2 [Compound A141, 8-((2-hydroxynaphthalen-1-yl)methyl)-1,2,3,4-tetrahydroisoquinolin-7-ol] | < 25% | < 25% | < 25% | 25 to 50%
< 25% | 75 to 100% | CCN(CC)CCCOc1ccc2ccccc2c1Cc1c(O)ccc2ccccc12 [Compound A135, 1-((2-(3-(diethylamino)propoxy)naphthalen-1-yl)methyl)naphthalen-2-ol] | 25 to 50% | 75 to 100% | 75 to 100% | 75 to 100%
25 to 50% | 75 to 100% | CN(C)CCOc1ccc2ccccc2c1Cc1c(O)ccc2ccccc12 [Compound A134, 1-((2-(2-(dimethylamino)ethoxy)naphthalen-1-yl)methyl)naphthalen-2-ol] | < 25% | 75 to 100% | 75 to 100% | 75 to 100%
75 to 100% | 75 to 100% | O=S(=O)(Nc1ccc2ccccc2c1Cc1c(O)ccc2ccccc12)c1ccccc1 [Compound A026, N-(1-((2-hydroxynaphthalen-1-yl)methyl)naphthalen-2-yl)benzenesulfonamide] | < 25% | 75 to 100% | < 25% | 25 to 50%

Source: patent US12187681B2 (Shanghai East Hospital, priority 2019, dated 2025)
